Article PMC3022637, “The modulation of TRPM7 currents by nafamostat mesilate depends directly upon extracellular concentrations of divalent cations” (Molecular Brain, 2010)
Where two headings read alike, the source gives them in different places.

Key:
[1] = target: T1, TRPM7 current in cultured mouse hippocampal neurons (Mus musculus, UniProt Q923J1); test: Whole-cell voltage clamp of TRPM7 currents in cultured hippocampal neurons (low divalent cation-induced or compound-activated); assay type: cell-based; settings: for IC50: -60 mV, acutely applied, read-out: IC50, block of TRPM7 current
T1 construct: supports the substantial involvement of endogenous TRPM7 channels in the responses of neurons; endogenous in cells; host or cells: primary cultured hippocampal neurons from embryonic Swiss mice

human TRPM7 channels = system: human TRPM7 channels; design: method as in PMID 18719395; settings: pH 7.4 to 4.0; cited from earlier work
[2] = system: T2, human TRPM7 E1052A mutant; test: Whole-cell recording of E1052A mutant TRPM7 currents in HEK293T cells; assay type: cell-based; settings: 1 mM NM; 0.1 mM Ca2+ and 0.1 mM Mg2+; inward current at -100 mV
T2 construct: expressed in transfected cells; host or cells: HEK293T
Procedure: Electrophysiological recordings were made from HEK293T cells transfected wild-type (WT) human TRPM7 or the […], and the […] mutant channels, as previously described. Whole-cell and patch recordings were performed on HEK293T cells at room temperature (22-25°C) with Axopatch 200B (Molecular Devices, Sunnyvale, CA) amplifier. […] When required, 1 mM ethyleneglycol-bis-(α-amino-ethyl ether) N,N'-tetra-acetic acid (EGTA) was replaced with added CaCl2 and MgCl2 as indictated in results section. […] INM represents the current observed during application of NM.

[3] = system: intracellular Ca2+ in cultured mouse cortical neurons; test: Fura-2 calcium imaging in cultured cortical neurons; assay type: cell-based; settings: NM 50 μM; without NM 1.17 ± 0.03
Procedure: (§1) Time-pregnant Swiss mice (embryonic day 16) were anesthetized with halothane and were decapitated. Brains of fetuses were removed rapidly and placed in Ca^2+ and Mg^2+ free ice cold PBS. Whole hippocampus or cerebral cortices were dissected under a dissection microscope and incubated with 0.05% trypsin-EDTA for 10 min at 37°C, then triturated with fire-polished glass pipettes. Cells were counted and plated in poly-L-ornithine-coated culture dishes at a density of 1 × 10^6 cells per 35 mm diameter dish. Neurons were cultured with neurobasal medium supplemented with B27 and maintained at 37°C in a humidified 5% CO2 atmosphere incubator. Cultures were fed twice a week. Neurons at 14-21 day culture stages were used for electrophysiological recordings and calcium image.
Fura-2 fluorescent Ca^2+ imaging was performed as described previously. Cortical or hippocampal neurons grown on 25 mm round glass coverslips were washed three times with ECF and incubated with 5 μM Fura-2-AM for ~ 40 min at room temperature. […] Digitized images were acquired, stored, and analyzed in a PC controlled by Axon Imaging Workbench software (AIW2.1, Molecular Devices, Sunnyvale, CA). […] Fura-2 fluorescence was detected at an emission wavelength of 510 nm. Ratio images of 340/380 nm were analyzed by averaging pixel ratio values in circumscribed regions of cells in the field of view. […]

[4] = system: intracellular Ca2+ in cultured hippocampal neurons; test: Fura-2 calcium imaging in cultured hippocampal neurons; assay type: cell-based, mouse
Procedure: as §1
Fura-2 fluorescent Ca^2+ imaging was performed as described previously. Cortical or hippocampal neurons grown on 25 mm round glass coverslips were washed three times with ECF and incubated with 5 μM Fura-2-AM for ~ 40 min at room temperature. Neurons were then washed three times and incubated in normal ECF for 30 min. Coverslips with Fura-2-loaded neurons were transferred to a perfusion chamber on the stage of an inverted microscope (Nikon TE300, Tokyo, Japan). Cells were illuminated using a xenon lamp (75W) and observed with a 40 × UV fluor oil-immersion objective lens. Video images were obtained using a cooled CCD camera (Sensys KAF 1401, Photometrics, Tucson, AZ) mounted on an inverted microscope (Nikon TE300, Tokyo, Japan). Digitized images were acquired, stored, and analyzed in a PC controlled by Axon Imaging Workbench software (AIW2.1, Molecular Devices, Sunnyvale, CA). The shutter and filter wheel (Lambda 10-2, Sutter Instrument, Novato, CA) were also controlled by AIW to allow timed illumination of cells at 340 and 380 nm excitation wavelengths. Fura-2 fluorescence was detected at an emission wavelength of 510 nm. Ratio images of 340/380 nm were analyzed by averaging pixel ratio values in circumscribed regions of cells in the field of view. […]

[5] = target: T3, wild-type (WT) human TRPM7 (Homo sapiens, UniProt Q96QT4); test: Whole-cell recording of recombinant TRPM7 currents in transfected HEK293T cells (voltage ramps); assay type: cell-based
T3 construct: expressed in transfected cells; host or cells: HEK293T
Procedure: Electrophysiological recordings were made from HEK293T cells transfected wild-type (WT) human TRPM7 or the E1052A, and the D1054A mutant channels, as previously described.
Whole-cell and patch recordings were performed on HEK293T cells at room temperature (22-25°C) with Axopatch 200B (Molecular Devices, Sunnyvale, CA) amplifier. For whole-cell recordings, the Cs^+-based bath solution contained (in mM) 100 Cs-aspartate, 1 EGTA, 10 N-2-Hydroxyethylpiperazine-N'-thanesulfonic acid (HEPES) and 120 mannitol (pH adjusted to 7.4 with CsOH). When required, 1 mM ethyleneglycol-bis-(α-amino-ethyl ether) N,N'-tetra-acetic acid (EGTA) was replaced with added CaCl2 and MgCl2 as indictated in results section. The pipette solution contained 100 Cs-aspartate, 1 EGTA, 10 HEPES, 0.5 CsCl, and 100 mannitol (pH 7.4). The inhibition ratio (%) was calculated according to the following equation: inhibition ratio (%) = 100 × [1 - (INM)/(ICtl)], where ICtl is whole-cell current observed before application of NM at +100 and -100 mV. INM represents the current observed during application of NM.
Data were analyzed with Clampfit 9.2. (Molecular Devices, Sunnyvale, CA), Excel 2002 (Microsoft Corporation, Redmond, WA), Origin 5.0 (OriginLab Corp., Northhampton, MA) and finalized illustrated using CorelDraw X3 (Corel Corporation; Ontario, Canada). Currents were normalized to the amplitude of control responses. NM or DAPI inhibitory concentration-response plots were fitted to the logistic equation: I = (Amax-A0)/[1+(X/IC50)^n]+A0, where I is the normalized current amplitude, X is the antagonist concentration; n is Hill coefficient; IC50 is the concentration of antagonist that generate 50% of maximal inhibition. Results are reported for the text, the figures and amplitude histograms, as mean ± S.E.M. They represent the mean of n individual measurements on different cells. Statistical analysis was done with the unpaired or paired t-test, when appropriate. Chemicals are re-drawn based on the structures downloaded from Pubchem. NM was purchased from BioMol (Plymouth Meeting, PA) and its metabolites p-GBA and AN were from TCI and gabexate, DAPI, HSB from Sigma (St. Louis, MO).

[6] = system: CA1 neurons in the hippocampal slice; test: Low divalent-induced inward current in CA1 neurons in the hippocampal slice; assay type: cell-based; settings: co-perfusion
From the text: To verify this we tested several compounds with benzene rings on their outer edge such as DAPI and HSB. Both DAPI and HSB are di-cations but with amidine groups at both termini. […] We also examined the actions of NM on CA1 neurons in the hippocampal slice in order to confirm whether or not NM was capable of inhibiting and activating this current in CA1 neurons in situ. The diffusion barriers presented in the slice preparation preclude very rapid changes in divalent cation concentrations but prolonged solution changes can be used to activate TRPM7 currents in this preparation. Lowering concentrations of divalent cations induced a slowly activating inward current that was attenuated by the co-perfusion of NM (not shown).

[7] = system: cultured hippocampal neurons; test: On-cell loose-patch recording of low Ca2+-induced action potential firing; assay type: cell-based, mouse; settings: NM 200 μM; induced by 0.5 mM Ca2+ and 0.5 mM Mg2+; control 8.5 ± 2.7 Hz
[8] = 1 mM (p-GBA up to 1 mM), low divalent-evoked current
[9] = current evoked by 0.1 mM Ca2+ and 0.1 mM Mg2+
[10] = 200 μM, current evoked by 0.1 mM Ca2+ and 0.1 mM Mg2+
[11] = 200 μM, 0.1 mM Ca2+ and 0.1 mM Mg2+

T3 sequence (Q96QT4 whole entry): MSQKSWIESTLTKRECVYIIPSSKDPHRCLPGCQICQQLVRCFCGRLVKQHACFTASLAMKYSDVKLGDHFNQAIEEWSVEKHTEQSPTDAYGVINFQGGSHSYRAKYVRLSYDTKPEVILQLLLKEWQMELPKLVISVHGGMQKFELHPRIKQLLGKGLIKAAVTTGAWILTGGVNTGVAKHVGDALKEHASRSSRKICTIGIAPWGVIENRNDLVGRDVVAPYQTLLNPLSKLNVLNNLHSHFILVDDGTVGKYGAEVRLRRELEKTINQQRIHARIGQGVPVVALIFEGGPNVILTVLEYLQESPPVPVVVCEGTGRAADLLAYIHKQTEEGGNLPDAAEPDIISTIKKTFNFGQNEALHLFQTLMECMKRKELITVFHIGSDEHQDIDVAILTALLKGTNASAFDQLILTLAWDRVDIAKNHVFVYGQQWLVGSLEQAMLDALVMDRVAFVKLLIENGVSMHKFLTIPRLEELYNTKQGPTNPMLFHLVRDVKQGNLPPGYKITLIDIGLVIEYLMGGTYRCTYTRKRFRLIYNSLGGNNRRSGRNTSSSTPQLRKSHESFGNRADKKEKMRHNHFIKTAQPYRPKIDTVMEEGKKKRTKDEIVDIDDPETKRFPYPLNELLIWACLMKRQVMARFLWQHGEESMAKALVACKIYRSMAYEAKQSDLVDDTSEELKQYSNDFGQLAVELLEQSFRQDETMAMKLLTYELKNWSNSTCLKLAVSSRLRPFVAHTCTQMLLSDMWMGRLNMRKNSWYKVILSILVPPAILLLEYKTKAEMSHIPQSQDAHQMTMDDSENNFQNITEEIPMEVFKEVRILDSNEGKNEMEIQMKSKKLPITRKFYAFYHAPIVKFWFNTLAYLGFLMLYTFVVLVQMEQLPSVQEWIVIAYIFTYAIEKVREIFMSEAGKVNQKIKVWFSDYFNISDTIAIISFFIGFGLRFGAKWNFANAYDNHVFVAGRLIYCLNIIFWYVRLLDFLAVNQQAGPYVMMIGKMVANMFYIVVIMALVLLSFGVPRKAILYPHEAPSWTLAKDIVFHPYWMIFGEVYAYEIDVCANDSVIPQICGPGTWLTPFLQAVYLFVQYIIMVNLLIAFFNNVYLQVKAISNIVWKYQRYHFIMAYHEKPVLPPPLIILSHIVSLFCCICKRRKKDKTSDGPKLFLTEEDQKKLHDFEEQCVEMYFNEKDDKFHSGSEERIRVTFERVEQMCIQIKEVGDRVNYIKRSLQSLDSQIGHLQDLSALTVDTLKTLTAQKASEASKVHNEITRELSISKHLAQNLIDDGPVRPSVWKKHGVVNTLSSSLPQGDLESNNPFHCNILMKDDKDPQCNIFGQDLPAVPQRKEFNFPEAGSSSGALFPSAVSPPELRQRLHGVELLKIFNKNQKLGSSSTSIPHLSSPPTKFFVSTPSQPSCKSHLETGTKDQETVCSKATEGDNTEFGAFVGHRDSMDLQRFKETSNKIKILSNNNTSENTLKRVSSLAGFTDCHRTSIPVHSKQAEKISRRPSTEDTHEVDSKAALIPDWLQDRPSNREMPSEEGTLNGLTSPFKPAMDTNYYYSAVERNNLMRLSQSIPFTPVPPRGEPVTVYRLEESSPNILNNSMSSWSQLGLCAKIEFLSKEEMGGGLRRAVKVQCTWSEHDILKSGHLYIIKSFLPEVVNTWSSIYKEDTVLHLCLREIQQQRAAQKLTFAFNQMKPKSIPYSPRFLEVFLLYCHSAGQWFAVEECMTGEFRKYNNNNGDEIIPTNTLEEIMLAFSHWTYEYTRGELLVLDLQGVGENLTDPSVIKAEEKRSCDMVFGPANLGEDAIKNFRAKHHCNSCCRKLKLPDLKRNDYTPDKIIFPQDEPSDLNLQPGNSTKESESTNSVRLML
T1 sequence (Q923J1 whole entry): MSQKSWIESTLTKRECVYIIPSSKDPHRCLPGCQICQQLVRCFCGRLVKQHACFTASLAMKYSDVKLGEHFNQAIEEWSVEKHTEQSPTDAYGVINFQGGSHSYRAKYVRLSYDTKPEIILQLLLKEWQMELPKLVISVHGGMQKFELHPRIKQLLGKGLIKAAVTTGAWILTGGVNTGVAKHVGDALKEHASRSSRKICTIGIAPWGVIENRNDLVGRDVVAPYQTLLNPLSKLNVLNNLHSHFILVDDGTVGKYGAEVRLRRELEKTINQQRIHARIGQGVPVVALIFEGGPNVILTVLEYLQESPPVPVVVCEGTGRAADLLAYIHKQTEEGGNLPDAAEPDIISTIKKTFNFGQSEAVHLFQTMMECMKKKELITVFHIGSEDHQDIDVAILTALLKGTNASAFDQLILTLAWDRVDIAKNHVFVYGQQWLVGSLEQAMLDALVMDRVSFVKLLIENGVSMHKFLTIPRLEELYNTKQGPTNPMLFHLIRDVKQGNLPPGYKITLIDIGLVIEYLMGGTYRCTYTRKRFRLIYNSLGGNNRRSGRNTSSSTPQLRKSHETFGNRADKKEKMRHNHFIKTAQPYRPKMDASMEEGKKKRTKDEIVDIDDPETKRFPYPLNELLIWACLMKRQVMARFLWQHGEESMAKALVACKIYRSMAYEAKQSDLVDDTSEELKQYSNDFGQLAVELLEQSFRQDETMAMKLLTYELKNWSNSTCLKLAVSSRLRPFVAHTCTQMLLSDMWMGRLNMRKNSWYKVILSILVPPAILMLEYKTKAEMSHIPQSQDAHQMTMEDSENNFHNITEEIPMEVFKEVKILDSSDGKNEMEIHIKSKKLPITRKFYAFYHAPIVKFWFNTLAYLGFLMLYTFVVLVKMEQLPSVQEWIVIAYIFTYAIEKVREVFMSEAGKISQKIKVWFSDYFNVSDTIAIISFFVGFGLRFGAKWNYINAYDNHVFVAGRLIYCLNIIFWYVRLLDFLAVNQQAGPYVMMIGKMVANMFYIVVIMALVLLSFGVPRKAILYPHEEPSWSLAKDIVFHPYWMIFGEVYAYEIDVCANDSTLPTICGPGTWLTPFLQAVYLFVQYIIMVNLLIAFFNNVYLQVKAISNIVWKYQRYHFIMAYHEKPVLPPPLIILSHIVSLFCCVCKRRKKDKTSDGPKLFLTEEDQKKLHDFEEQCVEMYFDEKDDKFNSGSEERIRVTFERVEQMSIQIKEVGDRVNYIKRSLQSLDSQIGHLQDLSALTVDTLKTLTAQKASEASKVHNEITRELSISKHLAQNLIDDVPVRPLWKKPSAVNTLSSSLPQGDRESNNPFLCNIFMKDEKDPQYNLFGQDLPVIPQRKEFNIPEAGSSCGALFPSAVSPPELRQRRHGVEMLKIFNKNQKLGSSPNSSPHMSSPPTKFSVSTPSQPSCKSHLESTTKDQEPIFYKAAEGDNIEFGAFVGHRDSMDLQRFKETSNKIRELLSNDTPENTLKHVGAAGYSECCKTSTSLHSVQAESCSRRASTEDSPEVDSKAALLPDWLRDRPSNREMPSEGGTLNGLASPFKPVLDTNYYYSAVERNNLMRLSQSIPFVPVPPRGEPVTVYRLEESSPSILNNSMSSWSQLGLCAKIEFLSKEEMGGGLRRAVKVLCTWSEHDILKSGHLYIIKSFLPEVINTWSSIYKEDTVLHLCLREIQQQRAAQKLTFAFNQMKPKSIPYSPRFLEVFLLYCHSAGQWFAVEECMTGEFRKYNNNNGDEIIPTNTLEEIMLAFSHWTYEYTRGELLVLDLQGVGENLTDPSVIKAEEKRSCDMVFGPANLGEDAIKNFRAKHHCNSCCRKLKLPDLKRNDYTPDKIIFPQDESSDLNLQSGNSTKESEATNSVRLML

## N=C(N)c1ccc2cc(O)ccc2c1 [AN, 6-amidino-2-naphthol]
[1]; 200 μM, normalized current
  I compound / I control, pre-applied: 85 ± 5%
[1]; [8]
  block of TRPM7 current, co-applied: only partially inhibited
[1]; 1 mM, normalized current
  I compound / I control, co-applied: 69 ± 29%
[1]; concentration not given
  potentiation of TRPM7 current, pre-applied: no potentiation

## [Ca+2] [Ca^2+]
Human TRPM7 channels
  reduction of IC50 for monovalent cation block on decreasing pH from 7.4 to 4.0: 410 fold

## N=C(N)c1ccc(-c2cc3ccc(C(=N)N)cc3[nH]2)cc1 [DAPI]
[1]; 25 μM, 2 mM Ca2+ and 1 mM Mg2+
  direct activation of TRPM7 current at physiological divalent cations: without effect
[1]; 100 μM, 2 mM Ca2+ and 1 mM Mg2+
  direct activation of TRPM7 current at physiological divalent cations: strong effect
[1]; 250 μM, current evoked by 0.1 mM Ca2+ and 0.1 mM Mg2+
  block of TRPM7 current: completely and reversibly blocked
[1]; [9]
  Hill coefficient: 1.8
  IC50: 38 µM

## CCOC(=O)c1ccc(OC(=O)CCCCCNC(=N)N)cc1 [Gabexate, gabexate]
[1]; 200 μM
  potentiation of TRPM7 current, pre-exposed: failed to potentiate
[1]; 200 μM, read-out: inhibition of TRPM7 current, co-applied
  inhibition at 200 µM: 45 ± 3%

## [Gd+3] [Gd^3+]
[1]; 10 μM
  inhibition of TRPM7 current activated by NM: 97 ± 2%

## CC(=O)N[C@@H](CC(C)C)C(=O)N[C@@H](CC(C)C)C(=O)N[C@H](C=O)CCCNC(=N)N [Leupeptin, leupeptin]
[1]; 200 μM
  potentiation of TRPM7 current, pre-exposed: no inhibitory or potentiating effects
[1]; [10]
  block of TRPM7 current, co-applied: no inhibitory or potentiating effects

## [Mg+2] [Mg^2+]
Human TRPM7 channels
  reduction of IC50 for monovalent cation block on decreasing pH from 7.4 to 4.0: 510 fold

## N=C(N)c1ccc2cc(OC(=O)c3ccc(N=C(N)N)cc3)ccc2c1 [NM, 6-amidino-2-naphthyl-4-guanidinobenzobate dimethanesulfonate]
[1]; 25 μM, 2 mM Ca2+ and 1 mM Mg2+
  direct activation of TRPM7 current at physiological divalent cations: little effects
[1]; 0.1 mM Ca2+ (with 0.1 Mg2+)
  amplitude of NM-induced current: 1018 ± 120 pA
[1]; 200 μM applied before lowering divalent cations, current evoked by 0.1 mM Ca2+ and 0.1 mM Mg2+
  potentiation of evoked TRPM7 current, pre-exposed: about 3.6 ± 0.4 fold
[1]; [11]
  offset time constant of inhibition: 1.07 ± 0.20 s
  onset time constant of inhibition: 0.29 ± 0.04 s
[1]; 200 μM, 2 mM Ca2+ and 1 mM Mg2+
  direct activation of TRPM7 current at physiological divalent cations: induced small inward currents
[1]; 200 μM, 2 mM Ca2+ and 1 mM Mg2+, brief washout
  current amplitude upon NM washout: 379 ± 86 pA
[1]; 200 μM, 2 mM Ca2+ and 1 mM Mg2+, during application
  amplitude of NM-induced current: 243 ± 66 pA
[1]; 200 μM, 2 mM Ca2+ and 1 mM Mg2+, voltage ramps
  reversal potential of NM-induced current: 0 mV
[1]; [10]
  block of TRPM7 current, co-applied: completely blocks
[1]; 200 μM, current evoked by zero divalent cations
  block of TRPM7 current, co-applied: reversibly blocked
[1]; 2 mM Ca2+ (with 1 mM Mg2+)
  amplitude of NM-induced current: 291 ± 52 pA
[1]; 10 mM Ca2+ (with 1 mM Mg2+)
  amplitude of NM-induced current: 147 ± 20 pA
[1]; [9]
  Hill coefficient: 1.4
  IC50: 27 µM
[2]
  inhibition by NM of currents, relative to WT: strongly depressed
[3]
  net increase of 340/380 ratio on lowering extracellular Ca2+: 0.20 ± 0.08
[4]; 200 μM, 2 mM Ca2+, no Mg2+, MK801, CNQX, nimodipine present
  NM-induced change of intracellular concentration of Ca2+: induced an increase
[4]; NM 50 μM, Ca2+ from 2.0 mM to 0.5 mM, no added Mg2+, without NM 2.64 ± 0.48
  net increase of 340/380 ratio on lowering extracellular Ca2+: 0.61 ± 0.32
[4]; NM 50 μM, KCl 50 mM, 1.67 in the absence of NM
  net increase of 340/380 ratio induced by KCl: 1.84
[5]; 500 μM NM
  effect on blocking potency of extracellular divalent cations: substantially reduced the blocking potency
[5]; +100 mV
  increase of inhibitory potency in divalent-free solution versus 0.1 mM divalents: about 5 fold
[5]; +100 mV, 0.1 mM Ca2+ and 0.1 mM Mg2+
  Hill coefficient: 1.4
[5]; +100 mV, 0.1 mM Ca2+ and 0.1 mM Mg2+, read-out: IC50, inhibition of outward TRPM7 current
  IC50: 617 µM
[5]; +100 mV, divalent free solution
  Hill coefficient: 1.2
[5]; +100 mV, divalent free solution, read-out: IC50, inhibition of TRPM7 current
  IC50: 121 µM
[5]; -100 mV
  increase of inhibitory potency in divalent-free solution versus 0.1 mM divalents: 30 fold
[5]; -100 mV, 0.1 mM Ca2+ and 0.1 mM Mg2+
  Hill coefficient: 1.3
[5]; -100 mV, 0.1 mM Ca2+ and 0.1 mM Mg2+, read-out: IC50, inhibition of inward TRPM7 current
  IC50: 514 µM
[5]; -100 mV, divalent free solution
  Hill coefficient: 1.3
[5]; -100 mV, divalent free solution, read-out: IC50, inhibition of TRPM7 current
  IC50: 15 µM
[5]; TRPM7-transfected HEK293T cells, ramp-clamp, inward currents at -100 mV
  potentiation of TRPM7 currents: potentiates
[5]; in the presence of 1 mM Ca2+ and Mg2+
  inhibition of TRPM7 currents: failed to inhibit
[6]
  effect on slowly activating inward current induced by lowering divalent cations: attenuated
[7]
  firing frequency of action potentials: 6.8 ± 2.9 Hz

## Cn1cc(NC(=O)c2cc(NC(=O)CN=C(N)N)cn2C)cc1C(=O)NCCC(=N)N [netropsin]
[1]; 200 μM
  potentiation of TRPM7 current, pre-exposed: nor potentiated
[1]; [10]
  block of TRPM7 current, co-applied: neither blocked

## N=C(N)Nc1ccc(C(=O)O)cc1 [p-GBA, p-guanidinobenzoic acid]
[1]; [8]
  block of TRPM7 current, co-applied: neither inhibited
[1]; 1 mM, normalized current
  I compound / I control, co-applied: 94 ± 3%
  I compound / I control, pre-exposed: 96 ± 1%
[1]; up to 1 mM
  potentiation of TRPM7 current, pre-exposed: nor potentiated

## N=C(N)NCCCCCCCCCCNC(=N)N [synthalin]
[1]; 200 μM
  potentiation of TRPM7 current, pre-exposed: did not block or potentiate
[1]; [10]
  block of TRPM7 current, co-applied: did not block or potentiate
